Measurements reported in US6794494B1, “Cancerous disease modifying antibodies” (Arius Research, Inc., priority 2003, dated 2004).

B1: 17-1A: antibody with some specificity for adenocarcinomas, tested in colorectal cancer clinical trials (antibody, chains of the INN, looked up, V domains shown)
VH: QVQLQQSGAELVRPGTSVKVSCKASGYAFTNYLIEWVKQRPGQGLEWIGVINPGSGGTNYNEKFKGKATLTADKSSSTAYMQLSSLTSDDSAVYFCARDGPWFAYWGQGTLVTVSA
VL: NIVMTQSPKSMSMSVGERVTLTCKASENVVTYVSWYQQKPEQSPKLLIYGASNRYTGVPDRFTGSGSATDFTLTISSVQAEDLADYHCGQGYSYPYTFGGGTKLEIK

Experiments:
OVCAR cells = settings: 5 days; four experiments in triplicate; concentration (10A304.7, Anti-Fas, 107.3, MPC-11 20 μg/mL; c225 5 μg/mL; Cycloheximide 100 μM)
SW620 cells [1] = test: Live/Dead cytotoxicity assay, purified antibody; settings: 5 days; four experiments in triplicate; concentration (10A304.7, Anti-Fas, 107.3, MPC-11 20 μg/mL; c225 5 μg/mL; Cycloheximide 100 μM)
MB-231 cells = settings: 5 days; four experiments in triplicate; concentration (10A304.7, Anti-Fas, 107.3, MPC-11 20 μg/mL; c225 5 μg/mL; Cycloheximide 100 μM)
DLD-1 cells = settings: 5 days; four experiments in triplicate; concentration (10A304.7, Anti-Fas, 107.3, MPC-11 20 μg/mL; c225 5 μg/mL; Cycloheximide 100 μM)
SW620 cells [2] = settings: human
SW1116 cells [3] = settings: 5 days; four experiments in triplicate; concentration (10A304.7, Anti-Fas, 107.3, MPC-11 20 μg/mL; c225 5 μg/mL; Cycloheximide 100 μM)
SW1116 cells [4] = test: Live/Dead cytotoxicity assay, hybridoma supernatant; settings: hybridoma supernatant or controls, 5 days
MCF-7 cells = settings: 5 days; four experiments in triplicate; concentration (10A304.7, Anti-Fas, 107.3, MPC-11 20 μg/mL; c225 5 μg/mL; Cycloheximide 100 μM)
HT-29 cells [5] = test: Live/Dead cytotoxicity assay, purified antibody; settings: 5 days; four experiments in triplicate; concentration (10A304.7, Anti-Fas, 107.3, MPC-11 20 μg/mL; c225 5 μg/mL; Cycloheximide 100 μM)
Lovo cells = settings: 5 days; four experiments in triplicate; concentration (10A304.7, Anti-Fas, 107.3, MPC-11 20 μg/mL; c225 5 μg/mL; Cycloheximide 100 μM)
BxPC-3 cells = settings: 5 days; four experiments in triplicate; concentration (10A304.7, Anti-Fas, 107.3, MPC-11 20 μg/mL; c225 5 μg/mL; Cycloheximide 100 μM)
HT-29 cells [6] = settings: human
PC-3 cells = settings: 5 days; four experiments in triplicate; concentration (10A304.7, Anti-Fas, 107.3, MPC-11 20 μg/mL; c225 5 μg/mL; Cycloheximide 100 μM)
colorectal cancer = settings: cited from earlier work

Row | Molecule | Cytotoxicity above background, Ovary OVCAR (OVCAR cells) | Cytotoxicity above background, Colon SW820 (SW620 cells [1]) | Cytotoxicity above background, Breast MB-231 (MB-231 cells) | Cytotoxicity above background, Colon DLD-1 (DLD-1 cells) | Cytotoxicity (%) SW620 Average (SW620 cells [2]) [%] | Cytotoxicity above background, Colon SW1116 (SW1116 cells [3]) | Cytotoxicity (%) SW1116 Average (SW1116 cells [4]) [%] | Cytotoxicity above background, Breast MCF-7 (MCF-7 cells) | Cytotoxicity above background, Colon HT-29 (HT-29 cells [5]) | Cytotoxicity above background, Colon Lovo (Lovo cells) | Cytotoxicity above background, Pancreas BxPC-3 (BxPC-3 cells) | Cytotoxicity (%) HT-29 Average (HT-29 cells [6]) [%] | Cytotoxicity above background, Prostate PC-3 (PC-3 cells) | clinical response, protocols using additional cyclophosphamide (colorectal cancer; 52 patients, with cyclophosphamide) | clinical response, Phase 2 clinical trials (colorectal cancer; over 60 patients)
1 | C[C@@H]1C[C@@H]([C@H](O)CC2CC(=O)NC(=O)C2)C(=O)[C@@H](C)C1 [Cycloheximide] | ++++ (4/4 experiments with 15% cytotoxicity above background (++++)) | ++++ (4/4 experiments with 15% cytotoxicity above background (++++)) | ++++ (4/4 experiments with 15% cytotoxicity above background (++++)) | ++++ (4/4 experiments with 15% cytotoxicity above background (++++)) | −2 | ++++ (4/4 experiments with 15% cytotoxicity above background (++++)) | 17 | ++++ (4/4 experiments with 15% cytotoxicity above background (++++)) | ++++ (4/4 experiments with 15% cytotoxicity above background (++++)) | ++++ (4/4 experiments with 15% cytotoxicity above background (++++)) | ++++ (4/4 experiments with 15% cytotoxicity above background (++++)) | 23 | ++++ (4/4 experiments with 15% cytotoxicity above background (++++)) |  | 
2 | B1 |  |  |  |  |  |  |  |  |  |  |  |  |  | only one complete response and two minor responses among 52 patients | only one patient having a partial response
